Earlier results on 10 molecules are cited in patent US10149395B2, “Water-based organic solderability preservative, and electronic board and surface treatment method using the same” (TAMURA CORPORATION, priority 2016, dated 2018).

Molecules are shown by their SMILES.

The conditions of this data set: at 20 degrees C.
With `CCO` [Organic solvent J, ethyl alcohol], the solubility to water entry is listed as “miscible in all proportions”.

Consider `COCC(C)O` (stereo not shown) [Organic solvent C, propylene glycol monomethyl ether], for which the solubility to water result is reported as “miscible in all proportions”.

`COCC(C)OC(C)=O` (stereo not shown) [Organic solvent F, propylene glycol monomethyl ether acetate]: the solubility to water is 18.5 g/100 g.

As for `OCC1CCCO1` (stereo not shown) [Organic solvent E, tetrahydrofurfuryl alcohol], the solubility to water entry is listed as “miscible in all proportions”.

As to `CCCCOCC(C)OCC(C)OCC(C)O` (stereo not shown) [Organic solvent H, butylpropylene triglycol], the solubility to water is reported as 0.4 g/100 g.

For `CCCCOCCOCCOCCCC` [Organic solvent I, diethylene glycol dibutylether], the solubility to water is reported as 0.3 g/100 g.

For `COCCOCCOCCOCCOC` [Organic solvent D, tetraethylene glycol dimethyl ether], the solubility to water entry is listed as “miscible in all proportions”.

On to `COC(C)COC(C)COC(C)CO` (stereo not shown) [Organic solvent A, tripropylene glycol monomethyl ether], for which the solubility to water result was “miscible in all proportions”.

Regarding `CC(C)O` [Organic solvent K, isopropyl alcohol], the solubility to water entry is listed as “miscible in all proportions”.

Regarding `OCCOc1ccccc1` [Organic solvent G, phenyl glycol], the solubility to water is recorded as 2.7 g/100 g.
